Article PMC10382935 (The Cell Surface, 2023)

Target: T1, CRD DC-SIGN (carbohydrate recognition domain of DC-SIGN, 15N labelled) (Homo sapiens, UniProt Q9NNX6)
T1 sequence (Q9NNX6 250-404 limits assumed): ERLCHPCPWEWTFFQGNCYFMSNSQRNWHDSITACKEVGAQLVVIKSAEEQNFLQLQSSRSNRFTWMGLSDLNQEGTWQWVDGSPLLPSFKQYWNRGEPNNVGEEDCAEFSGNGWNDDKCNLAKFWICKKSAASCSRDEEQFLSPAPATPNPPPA
Assay: 1H, […]-HSQC NMR titration
Assay type: binding

| Kd | Structure (SMILES) |
| --- | --- |
| ~600 µM | NCCCO[C@H]1O[C@H](CO)[C@@H](O)[C@H](O)[C@@H]1O[C@H]1O[C@H](CO)[C@@H](O)[C@H](O)[C@@H]1O[C@H]1O[C@H](CO)[C@@H](O)[C@H](O[C@H]2O[C@H](CO)[C@@H](O)[C@H](O)[C@@H]2O[C@H]2O[C@H](CO)[C@@H](O)[C@H](O)[C@@H]2O)[C@@H]1O [compound 29, pentasaccharide 29] |
| ~1100 µM | NCCCO[C@H]1O[C@H](CO)[C@@H](O)[C@H](O)[C@@H]1O[C@H]1O[C@H](CO)[C@@H](O)[C@H](O)[C@@H]1O[C@H]1O[C@H](CO)[C@@H](O)[C@H](O)[C@@H]1O[C@H]1O[C@H](CO)[C@@H](O)[C@H](O[C@H]2O[C@H](CO)[C@@H](O)[C@H](O)[C@@H]2O[C@H]2O[C@H](CO)[C@@H](O)[C@H](O)[C@@H]2O)[C@@H]1O [compound 30, hexasaccharide 30] |
